{
  "source": "patent US20260137828A1",
  "about": "“COMPOSITIONS AND METHODS INVOLVING PROBIOTIC MOLECULES” (MICROSINTESIS INC., priority 2017, published 2026)",
  "key": {"[1]": {"system": "Staphylococcus aureus (strain alias LA-414M SPA t034)", "test": "Cefoxitin MIC testing with and without cell-free supernatant", "format": "cell-based", "conditions": "MRSA LA 414M", "excerpt": "(§1) Three methicillin resistant Staphylococci (MRS) strains were used in these experiments: 1) Staphylococcus pseudintermedius (strain alias C260 22-2011 dtqa), a clinical isolate from a dog skin infection; 2) Staphylococcus aureus (strain alias LA-414M SPA t034), a livestock-associated strain isolated from beef purchased from a grocery store in Charlottetown, PEI, Canada; and 3) Staphylococcus aureus (strain alias 81M SPA t008), isolated from poultry meat purchased from a grocery store in Charlottetown, PEI, Canada. All three MRS strains were provided by the Atlantic Veterinary College (AVC) at the University of Prince Edward Island. The methicillin-resistance of these strains was confirmed by AVC staff using an oxacillin disk diffusion method. The strains were originally cultured on sheep blood agar slants, and then transferred to lysogeny broth agar plates. Cefoxitin resuspended in methanol was used for antibiotic resistance testing, and growth was tested in two different media types, standard Lysogeny Broth and standard BBL™ Cation-Adjusted Mueller-Hinton Medium (Becton, Dickinson and Company). The minimum inhibitory concentrations (MICs) of the cefoxitin was determined for each strain in each respective medium in the presence and absence of the cell-free supernatant. Assays were performed according to the Clinical and Laboratory Standards Institute (CLSI) guidelines for MIC testing of Staphylococcal species [CLSI, 2015] as well as the European Committee for Antimicrobial Susceptibility Testing (EUCAST) of the European Society of Clinical Microbiology and Infectious Diseases [EUCAST, 2003].\n(§2) The protocol for MIC testing was as follows. The cell-free supernatants were resuspended in the respective media and filter sterilized through a […] pore size filter. The required concentration of dried cell free supernatant was weighed and added at concentrations ranging from 0-60 mg/mL. Cefoxitin was added to obtain final concentrations ranging from 0-250 μg/mL. Cultures of each respective strain were grown overnight in either lysogeny broth or Mueller Hinton for 16-20 hours at 37° C. and 200 rpm shaking in aerobic conditions to achieve optical densities at 600 nm (OD600) of 1.2-1.6. […] The cultures (150 μL) were grown in a 96-well clear flat-bottom microtiter plate. The microtiter plate was then covered in parafilm and incubated at 35° C.±2° C. for 24 hours. Following incubation, microplates were read at 600 nm using a microplate reader. […] The data is the average from two technical replicates from two biological replicates."}, "[2]": {"system": "Staphylococcus pseudintermedius (strain alias C260 22-2011 dtqa)", "test": "Cefoxitin MIC testing with and without cell-free supernatant", "format": "cell-based", "conditions": "MSRP C260, Lysogeny Broth", "excerpt": "as §1, §2"}, "[3]": {"system": "Staphylococcus aureus (strain alias 81M SPA t008)", "test": "Cefoxitin MIC testing with and without cell-free supernatant or size exclusion fractions", "format": "cell-based", "excerpt": "as §1, §2\nFor the size exclusion chromatography the sample was separated using a Sephadex G75 resin. The samples were separated and collected into fractions: Fraction 1 (>163000 Da), Fraction 2 (163000-14500 Da), Fraction 3 (14500-1300 Da), Fraction 4 (1300-110 Da), Fraction 5 (110-10 Da)."}, "[4]": {"system": "HilA", "test": "qPCR of HilA down-regulation in Salmonella", "format": "cell-based, Salmonella enterica typhimurium DT104", "conditions": "reference 16S, individual synthetic biopeptides, 50 μg per assay", "excerpt": "The cell-free supernatant was separated using Sephadex G75 resin. The samples were separated and collected into fractions: Fraction 1 (>163000 Da), Fraction 2 (163000-14500 Da), Fraction 3 (14500-1300 Da), Fraction 4 (1300-110 Da), Fraction 5 (110-10 Da). The samples were collected and assayed by qPCR using Salmonella enterica typhimurium DT104 strain. The down-regulation of HilA was compared to the reference gene 16S.\nThe active fraction from G75 size exclusion chromatography was further separated using reverse phase chromatography. The fractions from the reverse phase: Fraction 1 (0-2 min), Fraction 2 (2-4 min), Fraction 3 (4-16 min), Fraction 4 (16-32 min), Fraction 5 (32-40 min), Fraction 6 (40-58 min). The fractions were dried and neutralized to remove acetonitrile and trifluoroacetic acid from the solvent. The dried fractions were assayed using the same qPCR assay conditions as above. The fractions were analyzed by de novo sequencing at the University of Guelph Advance Analytical center. The peptides from the active fractions of 6 batches were compared and common peptides from batches were deduced.\nAdditionally, the 1×sample from each probiotic culture was tested using the Salmonella qPCR assay described in example 1 or a Lactate Dehydrogenase (LDH) assay using either UPEC 099 or Staphylococcus aureus 81M. For the LDH assay the dried cell-free supernatant was resuspended into 5 mL of lysogeny broth and inoculated with either UPEC 099 or Staphylococcus aureus 81M and incubated for 4 hours. After incubation, the samples were centrifuged and the supernatant was assayed. A 100 μL aliquot of supernatant was added to 1 mL mammalian HT29 cells at 1×10^6 cells per mL in a 12-well plate. The samples were incubated for 45 minutes at 37° C. and 5% CO2. The supernatant was then assayed using the manufacture's protocol (Pierce LDH Cytotoxicity assay kit, Thermo Scientific, Rockford, Il, USA). The percent inhibition was calculated using the no treatment control and a detergent lysed control using the formula provided in the protocol (Table 3)."}, "[5]": {"system": "HylA", "conditions": "reference GapA, individual synthetic biopeptides, 50 μg per assay", "method": "The La-5 cell-free supernatant used for these experiments was batch D4. […] Strain 1 alias UPEC99 and strain 2 alias UPEC804. The strains were cultured on LB agar. Two different media were tested LB and artificial urine medium.\nThe UPEC were grown for 4 hours in the presence of cell-free supernatant. The cells were harvested and the RNA was extracted. The RNA was treated with DNAse I to remove genomic DNA. The RNA was used as a template to make cDNA. The cDNA was assayed by qPCR and the gene expression was normalized to a reference gene and compared to a without cell-free media control.\nThe synthetic bio-peptides were analyzed at 50 μg per assay."}, "[6]": {"system": "MRSA", "conditions": "after a 24 hour incubation; cited from earlier work"}},
  "data": [
    {"compound": "CO[C@@]1(NC(=O)Cc2cccs2)C(=O)N2C(C(=O)O)=C(COC(N)=O)CS[C@@H]21", "note": "[cefoxitin]", "values": [
      {"measurement": "Range of Cefoxitin concentration to inhibition growth to O.D. <0.1", "setting": "[1]; Lysogeny Broth, 0 mg/mL dried cell-free supernatant", "value": "30 to 40", "unit": "µg/mL"},
      {"measurement": "Range of Cefoxitin concentration to inhibition growth to O.D. <0.1", "setting": "[1]; Lysogeny Broth, 5 mg/mL dried cell-free supernatant", "value": "15 to 20", "unit": "µg/mL"},
      {"measurement": "Range of Cefoxitin concentration to inhibition growth to O.D. <0.1", "setting": "[1]; Lysogeny Broth, 30 mg/mL dried cell-free supernatant", "value": "15 to 20", "unit": "µg/mL"},
      {"measurement": "Range of Cefoxitin concentration to inhibition growth to O.D. <0.1", "setting": "[1]; Lysogeny Broth, 60 mg/mL dried cell-free supernatant", "value": "10 to 15", "unit": "µg/mL"},
      {"measurement": "Range of Cefoxitin concentration to inhibition growth to O.D. <0.1", "setting": "[1]; Mueller-Hinton Broth, 0 mg/mL dried cell-free supernatant", "value": "50 to 60", "unit": "µg/mL"},
      {"measurement": "Range of Cefoxitin concentration to inhibition growth to O.D. <0.1", "setting": "[1]; Mueller-Hinton Broth, 5 mg/mL dried cell-free supernatant", "value": "40 to 50", "unit": "µg/mL"},
      {"measurement": "Range of Cefoxitin concentration to inhibition growth to O.D. <0.1", "setting": "[1]; Mueller-Hinton Broth, 30 mg/mL dried cell-free supernatant", "value": "20 to 30", "unit": "µg/mL"},
      {"measurement": "Range of Cefoxitin concentration to inhibition growth to O.D. <0.1", "setting": "[1]; Mueller-Hinton Broth, 60 mg/mL dried cell-free supernatant", "value": "20 to 30", "unit": "µg/mL"},
      {"measurement": "Range of Cefoxitin concentration to inhibition growth to O.D. <0.1", "setting": "[2]; 0 mg/mL dried cell-free supernatant", "value": "125 to 175", "unit": "µg/mL"},
      {"measurement": "Range of Cefoxitin concentration to inhibition growth to O.D. <0.1", "setting": "[2]; 5 mg/mL dried cell-free supernatant", "value": "50 to 75", "unit": "µg/mL"},
      {"measurement": "Range of Cefoxitin concentration to inhibition growth to O.D. <0.1", "setting": "[2]; 30 mg/mL dried cell-free supernatant", "value": "20 to 30", "unit": "µg/mL"},
      {"measurement": "Range of Cefoxitin concentration to inhibition growth to O.D. <0.1", "setting": "[2]; 60 mg/mL dried cell-free supernatant", "value": "20 to 30", "unit": "µg/mL"},
      {"measurement": "Range of Cefoxitin concentration to inhibition growth to O.D. <0.1", "setting": "[3]; MRSA 81M, Lysogeny Broth, 0 mg/mL dried cell-free supernatant", "value": "75 to 125", "unit": "µg/mL"},
      {"measurement": "Range of Cefoxitin concentration to inhibition growth to O.D. <0.1", "setting": "[3]; MRSA 81M, Lysogeny Broth, 5 mg/mL dried cell-free supernatant", "value": "40 to 50", "unit": "µg/mL"},
      {"measurement": "Range of Cefoxitin concentration to inhibition growth to O.D. <0.1", "setting": "[3]; MRSA 81M, Lysogeny Broth, 30 mg/mL dried cell-free supernatant", "value": "30 to 40", "unit": "µg/mL"},
      {"measurement": "Range of Cefoxitin concentration to inhibition growth to O.D. <0.1", "setting": "[3]; MRSA 81M, Lysogeny Broth, 60 mg/mL dried cell-free supernatant", "value": "30 to 40", "unit": "µg/mL"},
      {"measurement": "Range of Cefoxitin concentration to inhibition growth to O.D. <0.1", "setting": "[3]; MRSA 81M, Mueller-Hinton Broth, 0 mg/mL dried cell-free supernatant", "value": "75 to 100", "unit": "µg/mL"},
      {"measurement": "Range of Cefoxitin concentration to inhibition growth to O.D. <0.1", "setting": "[3]; MRSA 81M, Mueller-Hinton Broth, 5 mg/mL dried cell-free supernatant", "value": "40 to 50", "unit": "µg/mL"},
      {"measurement": "Range of Cefoxitin concentration to inhibition growth to O.D. <0.1", "setting": "[3]; MRSA 81M, Mueller-Hinton Broth, 30 mg/mL dried cell-free supernatant", "value": "30 to 40", "unit": "µg/mL"},
      {"measurement": "Range of Cefoxitin concentration to inhibition growth to O.D. <0.1", "setting": "[3]; MRSA 81M, Mueller-Hinton Broth, 60 mg/mL dried cell-free supernatant", "value": "20 to 30", "unit": "µg/mL"},
      {"measurement": "Range of Cefoxitin concentration to inhibition growth to O.D. <0.1", "setting": "[3]; Staphylococcus aureus 81M, control, cefoxitin only (0 mg/mL), Table 5", "value": "60 to 75", "unit": "µg/mL"}
    ]},
    {"compound": "CVLPPK", "values": [
      {"measurement": "Fold down-regulation", "setting": "[4]", "value": 3.75, "unit": "Fold"},
      {"measurement": "Fold down-regulation", "setting": "[5]", "value": 3.20, "unit": "Fold"}
    ]},
    {"compound": "HLLPLP", "values": [
      {"measurement": "Fold down-regulation", "setting": "[4]", "value": 2.93, "unit": "Fold"},
      {"measurement": "Fold down-regulation", "setting": "[5]", "value": 2.64, "unit": "Fold"}
    ]},
    {"compound": "LKPTPEGD", "values": [
      {"measurement": "Fold down-regulation", "setting": "[4]", "value": 11.08, "unit": "Fold"},
      {"measurement": "Fold down-regulation", "setting": "[5]", "value": 4.69, "unit": "Fold"}
    ]},
    {"compound": "Lactobacillus acidophilus", "values": [
      {"measurement": "MRSA cells eliminated", "setting": "[6]", "value": 99, "unit": "%"}
    ]},
    {"compound": "MALPPK", "values": [
      {"measurement": "Fold down-regulation", "setting": "[4]", "value": 19.56, "unit": "Fold"},
      {"measurement": "Fold down-regulation", "setting": "[5]", "value": 9.06, "unit": "Fold"}
    ]},
    {"compound": "YPPGGP", "values": [
      {"measurement": "Fold down-regulation", "setting": "[4]", "value": 2.93, "unit": "Fold"},
      {"measurement": "Fold down-regulation", "setting": "[5]", "value": 3.56, "unit": "Fold"}
    ]},
    {"compound": "YPVEPF", "values": [
      {"measurement": "Fold down-regulation", "setting": "[4]", "value": 0.68, "unit": "Fold"},
      {"measurement": "Fold down-regulation", "setting": "[5]", "value": 1.03, "unit": "Fold"}
    ]}
  ]
}
